Laboratory results published in paper PMC9007462 (Journal of Medicinal Chemistry, 2022).

How the values were obtained:
LNCaP = assay: MTT chemosensitivity assay, LNCaP; assay type: cell-based, human; conditions: 96 h exposure, ± SD, at least three independent experiments
Experimental: (§1) MTT (3-(4, 5-dimethyl-2-thiazolyl)-2, 5-diphenyl-2H-tetrazolium bromide) assay was used to determine cell viability.[64] Immortalized PCa cells (PC-3, Du-145, and LNCaP) were seeded in 96-well plates and allowed to adhere overnight at 37 °C, 5% CO2, and 100% humidity. […] After 96 h of exposure, 200 μL of MTT (Sigma) solution (0.5 mg/mL) was added to each well and incubated at 37 °C for 4 h. The formazan crystals were dissolved in DMSO (Sigma), and the absorbance was read using a microplate reader (Multiskan EX; Thermo Fisher Scientific) at 540 nm. Data analysis was performed using Microsoft Excel 2013 and GraphPad Prism software.

PC3 = assay: MTT chemosensitivity assay, PC3; assay type: cell-based, human; conditions: ± SD, at least three independent experiments
Experimental: as §1

DU145 = assay: MTT chemosensitivity assay, DU145; assay type: cell-based, human; conditions: ± SD, at least three independent experiments
Experimental: as §1

Human ALDH1A3 = molecular target: T1, Human ALDH1A3 (Homo sapiens, UniProt P47895); assay: ALDH1A3 inhibition, IC50, Ki and type of inhibition; assay type: biochemical; conditions: for IC50: 6 μM hexanal as substrate; for IC50 / Ki: mean ± SE; for type of inhibition ALDH1A3 / Ki: hexanal as substrate; for Ki: fit to competitive inhibition equation
T1 construct: made in house
T1 sequence (P47895 1-512): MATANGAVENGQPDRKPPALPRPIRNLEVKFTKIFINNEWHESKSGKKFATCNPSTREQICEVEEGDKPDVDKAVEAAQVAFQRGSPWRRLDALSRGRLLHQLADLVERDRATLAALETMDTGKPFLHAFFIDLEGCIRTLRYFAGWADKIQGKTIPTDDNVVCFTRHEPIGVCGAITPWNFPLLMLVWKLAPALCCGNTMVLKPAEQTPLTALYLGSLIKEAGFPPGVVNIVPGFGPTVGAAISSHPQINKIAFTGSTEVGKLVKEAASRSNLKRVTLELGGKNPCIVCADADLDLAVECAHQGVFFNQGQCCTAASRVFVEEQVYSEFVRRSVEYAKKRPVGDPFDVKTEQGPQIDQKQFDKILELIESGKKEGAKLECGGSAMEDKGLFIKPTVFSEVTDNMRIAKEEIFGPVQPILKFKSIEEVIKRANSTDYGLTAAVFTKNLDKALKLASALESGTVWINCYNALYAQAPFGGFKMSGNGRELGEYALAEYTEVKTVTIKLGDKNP
Experimental: Human ALDH1A1, ALDH1A3, and ALDH3A1 were cloned and recombinantly expressed from the pET-30 Xa/LIC vector. Protein purification was achieved by affinity chromatography on a nickel-charged chelating Sepharose Fast Flow 5-mL column (His Trap column, Cytiva), which specifically binds the protein due to its N-terminal (His)6 tag, using an ÄKTA FPLC system (Cytiva), as previously described.[55] Enzymes including the His tag were stored at −80 °C in 20 mM Tris/HCl and 0.5 M NaCl, pH 8.0, until use. Reaction buffers were as follows: ALDH1A1 was assayed in 50 mM HEPES, 0.5 mM EDTA, and 0.5 mM DTT, pH 8.0; […] Activity under standard conditions was measured fluorimetrically at 25 °C using a Cary Eclipse (Varian) fluorimeter to follow the purification procedure and to check the enzyme concentration before each kinetic experiment. […] In order to determine the IC50 values, reaction rates were determined at various concentrations of inhibitor at a fixed concentration of substrate. […] Values are expressed as the mean ± SE. […] The data of enzymatic activities at different inhibitor concentrations were fitted to the Michaelis–Menten equation to determine the values of Km and Vmax. Next, results were fitted to the equations for competitive, given by [drawing 3]; noncompetitive, given by [drawing 4]; uncompetitive, given by [drawing 5]; and mixed, given by [drawing 6] .[56] The type of inhibition was selected based on the lowest error value. Parameters were expressed as the mean ± SE.

Human ALDH3A1 [1] = molecular target: T2, Human ALDH3A1 (Homo sapiens, UniProt P30838); assay: DEAB analogues as substrates of ALDH3A1 (substrate activity and kinetics); assay type: biochemical
T2 construct: made in house
T2 sequence (P30838 1-453): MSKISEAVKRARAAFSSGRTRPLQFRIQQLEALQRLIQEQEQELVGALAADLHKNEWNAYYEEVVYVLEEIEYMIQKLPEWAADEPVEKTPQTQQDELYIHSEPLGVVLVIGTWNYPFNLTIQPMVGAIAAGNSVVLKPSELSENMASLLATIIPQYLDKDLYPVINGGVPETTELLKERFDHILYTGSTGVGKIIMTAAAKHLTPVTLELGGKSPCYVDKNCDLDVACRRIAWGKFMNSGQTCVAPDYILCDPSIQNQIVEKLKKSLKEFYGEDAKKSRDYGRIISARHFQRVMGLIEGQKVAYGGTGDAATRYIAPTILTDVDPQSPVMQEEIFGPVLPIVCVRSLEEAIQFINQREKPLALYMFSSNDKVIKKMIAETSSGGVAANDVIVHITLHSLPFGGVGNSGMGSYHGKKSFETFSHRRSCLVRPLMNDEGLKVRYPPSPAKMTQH
Experimental: (§2) Human ALDH1A1, ALDH1A3, and ALDH3A1 were cloned and recombinantly expressed from the pET-30 Xa/LIC vector. Protein purification was achieved by affinity chromatography on a nickel-charged chelating Sepharose Fast Flow 5-mL column (His Trap column, Cytiva), which specifically binds the protein due to its N-terminal (His)6 tag, using an ÄKTA FPLC system (Cytiva), as previously described.[55] Enzymes including the His tag were stored at −80 °C in 20 mM Tris/HCl and 0.5 M NaCl, pH 8.0, until use. Reaction buffers were as follows: ALDH1A1 was assayed in 50 mM HEPES, 0.5 mM EDTA, and 0.5 mM DTT, pH 8.0; ALDH1A3 was assayed in 50 mM HEPES, 30 mM MgCl2, and 5 mM DTT, pH 8.0; and ALDH3A1 was assayed in 50 mM Tris–HCl and 5 mM DTT, pH 8.0. Activity under standard conditions was measured fluorimetrically at 25 °C using a Cary Eclipse (Varian) fluorimeter to follow the purification procedure and to check the enzyme concentration before each kinetic experiment. The fluorescence of NADH was characterized at 460 nm with excitation at 340 nm, and 5 μM NAD(P)H was added as an internal standard to obtain the absolute reaction rates.[55] Standard activity was measured at saturating concentrations of substrate using 30 μM hexanal (ALDH1A1), 250 μM hexanal (ALDH1A3), or 250 μM 4-NBA (ALDH3A1). NAD^+ was 500 μM for ALDH1A1 and ALDH1A3, and NADP^+ was 1 mM for ALDH3A1.
According to their structure with a carbonyl group, compounds were tested for their substrate properties against ALDH1A1, ALDH1A3, and ALDH3A1. […] Results are expressed as the percentage of activity at 10 μM versus the activity at 10 μM of their standard substrate (hexanal or 4-NBA). Values are expressed as the mean ± SE.
To calculate the Km value of compound 18 as a substrate for ALDH3A1, several concentrations of compound 18 were used. Experimental values were fitted to the adaptation of the Michaelis–Menten equation for substrate inhibition [drawing 1] and shown as the mean ± SE.

Human ALDH1A1 = molecular target: T3, Human ALDH1A1 (Homo sapiens, UniProt P00352); assay: Inhibition screening, single point at 10 μM, ALDH1A1; assay type: biochemical; conditions: 10 μM compound; 5 μM hexanal (Figure S1)
T3 construct: made in house
T3 sequence (P00352 1-501): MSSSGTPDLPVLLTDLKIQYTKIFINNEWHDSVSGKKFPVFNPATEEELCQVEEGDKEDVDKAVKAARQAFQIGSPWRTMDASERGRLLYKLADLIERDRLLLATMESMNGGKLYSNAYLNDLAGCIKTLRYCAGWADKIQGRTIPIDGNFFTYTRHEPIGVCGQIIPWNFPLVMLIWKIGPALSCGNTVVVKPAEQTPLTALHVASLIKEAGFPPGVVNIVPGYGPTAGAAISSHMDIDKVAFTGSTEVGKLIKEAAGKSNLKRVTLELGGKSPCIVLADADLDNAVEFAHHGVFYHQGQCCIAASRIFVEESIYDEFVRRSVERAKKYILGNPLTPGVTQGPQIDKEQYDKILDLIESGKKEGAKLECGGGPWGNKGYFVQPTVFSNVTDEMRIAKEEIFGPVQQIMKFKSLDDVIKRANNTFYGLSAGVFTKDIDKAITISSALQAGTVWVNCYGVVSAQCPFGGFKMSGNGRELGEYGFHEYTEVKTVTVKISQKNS
Experimental: as §2
All compounds tested were dissolved in DMSO and assayed at a final concentration of 1% (v/v) DMSO. […] For the initial screening, the enzymatic activity was measured in 96-well plates (final volume of 200 μL) in a Victor 3 Multilabel Plate Reader (Perkin Elmer), by monitoring the fluorescence of the NAD(P)H produced during the reaction (excitation at 340 nm and emission at 460 nm). Alternatively, the enzymatic activity was measured in a Varian Cary 400 UV–vis spectrophotometer, by monitoring the increase in the absorbance of NAD(P)H at 340 nm (ε = 6.22 mM^–1·cm^–1) or in a Cary Eclipse Varian fluorimeter, as described above. […] For ALDH1A1, 5 μM hexanal (Sigma) was used. For ALDH1A3, 10 and 250 μM hexanal (Sigma) were used. For ALDH3A1, 4-NBA (Sigma) was used at 31 and 250 μM. All substrates were prepared in the corresponding assay buffer at a concentration of 2 mM and further diluted to reach the final concentrations required per experiment. The concentration of the enzyme was kept from 50- to 100-fold lower than that of the substrate for all enzymatic assays.

Human ALDH3A1 [2] = molecular target: T2, Human ALDH3A1; assay: ALDH3A1 inhibition, IC50, Ki and type of inhibition; assay type: biochemical; conditions: 31 μM 4-NBA as substrate; mean ± SE
Experimental: as §2
In order to determine the IC50 values, reaction rates were determined at various concentrations of inhibitor at a fixed concentration of substrate. As substrates for ALDH1A1, ALDH1A3, and ALDH3A1, 5 μM hexanal, 6 μM hexanal, and 31 μM 4-NBA, respectively, were used. The IC50 values were calculated by nonlinear fitting of the obtained data to a sigmoidal plot using GraFit 5.0 (Erithacus software), with the following 4-parameter equation [drawing 2] , where y is the specific activity, x is the inhibitor concentration, background is the minimum y value, range is the fitted uninhibited value minus the background, and s is the slope factor. Values are expressed as the mean ± SE.
Activity assays to determine the type of inhibition and Ki value were performed using various substrate and inhibitor concentrations maintaining the same conditions as for the IC50 experiments and using GraFit 5.0 for data processing. The data of enzymatic activities at different inhibitor concentrations were fitted to the Michaelis–Menten equation to determine the values of Km and Vmax. Next, results were fitted to the equations for competitive, given by [drawing 3]; noncompetitive, given by [drawing 4]; uncompetitive, given by [drawing 5]; and mixed, given by [drawing 6] .[56] The type of inhibition was selected based on the lowest error value. Parameters were expressed as the mean ± SE.

[3] = Homo sapiens, PC-3, 96 h exposure
[4] = Homo sapiens, DU-145, 96 h exposure

Compound	IC50 (LNCaP; Homo sapiens, LNCaP) [µM]	IC50 (PC3; [3]) [µM]	IC50 (DU145; [4]) [µM]	IC50 (Human ALDH1A3) [µM]	other results
CN1CCN(c2ccc(C=O)cc2Br)CC1 [Compound 21, 3-Bromo-4-(4-methylpiperazin-1-yl)benzaldehyde]	179 ± 14	> 200	187 ± 14		
Cc1cc(C=O)ccc1N1CCCCC1 [Compound 15, 3-Methyl-4-(piperidin-1-yl)benzaldehyde]	61 ± 14	123 ± 29	106 ± 13	0.3 ± 0.07	type of inhibition ALDH1A3 (Human ALDH1A3): competitive; Ki (Human ALDH1A3): < 1 µM
O=Cc1ccc(N2CCOCC2)c(Br)c1 [Compound 22, 3-Bromo-4-morpholinobenzaldehyde]	82 ± 10	196 ± 4	155 ± 32		
O=Cc1ccc([N+](=O)[O-])cc1 [Compound 4-NBA, 4-Nitrobenzaldehyde, reference compound]					Km (Human ALDH3A1 [1]; mean ± SE): 31 ± 4.9 µM; kcat as ALDH3A1 substrate (Human ALDH3A1 [1]; mean ± SE): 359 ± 14 min^–1; Km fold higher than compound 18 (ALDH3A1 substrate) (Human ALDH3A1 [1]; ratio of Km values): 10 fold; turnover number (kcat) fold higher than compound 18 (ALDH3A1) (Human ALDH3A1 [1]; ratio of kcat values): 26 fold
O=Cc1ccc(N2CCCCC2)c(Cl)c1 [Compound 8, 3-Chloro-4-(piperidin-1-yl)benzaldehyde]	37 ± 1.4	130 ± 9	110 ± 3		
O=Cc1ccc(N2CCCC2)cc1 [Compound 4, 4-(Pyrrolidin-1-yl)benzaldehyde]					remaining ALDH1A1 activity (Human ALDH1A1): 10%
4-(Dipropylamino)-3-methoxybenzaldehyde [Compound 17]					IC50 (LNCaP): 61 ± 18 µM; IC50 (PC3; 96 h exposure): 106 ± 25 µM; IC50 (DU145; 96 h exposure): 103 ± 4 µM
O=Cc1ccc(N2CCCC2)c([N+](=O)[O-])c1 [Compound 34, 3-Nitro-4-(pyrrolidin-1-yl)benzaldehyde]				0.27 ± 0.03	
CC(C)Oc1ccc(C=O)cc1 [Compound 16, 4-Isopropoxybenzaldehyde]	> 200	> 200	> 200	0.26 ± 0.01	type of inhibition ALDH1A3 (Human ALDH1A3): competitive; Ki (Human ALDH1A3): < 1 µM; ALDH3A1 substrate activity (Human ALDH3A1 [1]; 10 μM compound as substrate, relative to activity with 10 μM 4-NBA (Figure S2)): good ALDH3A1 substrate
O=Cc1ccc(N2CCCCC2)c(Br)c1 [Compound 23, 3-Bromo-4-(piperidin-1-yl)benzaldehyde]	46 ± 10	84 ± 6	84 ± 12		
O=Cc1ccc(N2CCOCC2)c(Cl)c1 [Compound 9, 3-Chloro-4-morpholinobenzaldehyde]				2.37 ± 0.19	IC50 (Human ALDH3A1 [2]): 64.1 ± 6.7 µM
4-(Dipropylamino)-2-methoxybenzaldehyde [Compound 38]					IC50 (LNCaP): 50 ± 3 µM; IC50 (PC3; 96 h exposure): 75 ± 10 µM; IC50 (DU145; 96 h exposure): 71 ± 11 µM
O=Cc1ccc(-n2ccnc2)cc1 [Compound 6, 4-(1H-Imidazole-1-yl)benzaldehyde]	137 ± 14	172 ± 30	133 ± 11		
